Reference: publication PMC7145423, “Cooperative enzymatic control of N-acyl amino acids by PM20D1 and FAAH” (eLife, 2020)

Columns and labels:
Format in all cases: biochemical
PM20D1-flag [1] = target: T1, PM20D1-flag (Mus musculus, UniProt Q8C165); test: condensation with amino acid (synthase direction), LC-MS; details: co-substrates Gly, Ser or Phe; PBS, 1 hr 37°C
T1 construct: flag-tagged, secreted, conditioned medium of transfected HEK293T cells
T1 sequence (Q8C165 25-503): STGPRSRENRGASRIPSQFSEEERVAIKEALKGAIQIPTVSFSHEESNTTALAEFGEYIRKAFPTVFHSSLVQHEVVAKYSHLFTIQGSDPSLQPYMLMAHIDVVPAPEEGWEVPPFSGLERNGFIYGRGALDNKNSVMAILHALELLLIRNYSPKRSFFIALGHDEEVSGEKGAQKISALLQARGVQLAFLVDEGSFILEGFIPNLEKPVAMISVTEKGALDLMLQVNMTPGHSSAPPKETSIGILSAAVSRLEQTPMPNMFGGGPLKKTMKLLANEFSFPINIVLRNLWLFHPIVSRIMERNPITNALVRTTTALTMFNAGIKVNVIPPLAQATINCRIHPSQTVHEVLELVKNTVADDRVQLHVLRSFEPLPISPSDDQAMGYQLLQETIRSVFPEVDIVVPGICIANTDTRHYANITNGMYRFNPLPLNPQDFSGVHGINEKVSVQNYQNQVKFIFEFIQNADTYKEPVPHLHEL

FAAH-flag = target: T2, FAAH-flag (Mus musculus, UniProt O08914); test: hydrolysis, LC-MS; details: 100 µM substrate, 100 µg lysate protein, PBS, 1 hr 37°C
T2 construct: C-terminal flag tag, transient transfection in HEK293T, cell lysate
T2 sequence (O08914 1-579): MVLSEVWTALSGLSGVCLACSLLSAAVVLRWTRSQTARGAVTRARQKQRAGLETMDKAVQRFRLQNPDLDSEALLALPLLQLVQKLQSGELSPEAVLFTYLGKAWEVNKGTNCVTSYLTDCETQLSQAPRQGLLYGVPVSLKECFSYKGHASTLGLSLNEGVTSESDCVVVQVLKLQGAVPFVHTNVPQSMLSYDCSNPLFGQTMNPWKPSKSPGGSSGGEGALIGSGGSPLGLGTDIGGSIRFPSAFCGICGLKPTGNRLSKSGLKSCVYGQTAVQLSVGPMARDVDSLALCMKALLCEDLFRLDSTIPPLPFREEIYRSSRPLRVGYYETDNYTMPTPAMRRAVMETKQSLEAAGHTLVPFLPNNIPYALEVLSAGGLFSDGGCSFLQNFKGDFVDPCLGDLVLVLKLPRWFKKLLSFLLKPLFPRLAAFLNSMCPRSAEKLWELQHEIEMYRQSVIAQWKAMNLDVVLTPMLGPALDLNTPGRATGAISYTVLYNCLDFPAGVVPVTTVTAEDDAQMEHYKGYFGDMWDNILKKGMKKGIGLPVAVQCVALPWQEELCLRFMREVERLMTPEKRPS

PM20D1-flag [2] = target: T1, PM20D1-flag; test: hydrolysis, LC-MS; details: 100 µM substrate, 100 µg conditioned medium protein, PBS, 1 hr 37°C

| SMILES | hydrolysis, LC-MS (FAAH-flag) | further results |
| --- | --- | --- |
| CCCCC/C=C\C/C=C\C/C=C\C/C=C\CCCC(=O)O [arachidonic acid] |  | condensation with amino acid (synthase direction), LC-MS (PM20D1-flag [1]): PM20D1 also efficiently catalyzed the condensation of arachidonic acid with all three |
| CCCCC/C=C\C/C=C\C/C=C\C/C=C\CCCC(=O)N[C@@H](CO)C(=O)O [C20:4-Ser] | A strong preference was observed for C20:4-Ser over the other three N-acyl amino acid substrates |  |
| CCCCC/C=C\C/C=C\C/C=C\C/C=C\CCCC(=O)NCC(=O)O [C20:4-Gly] |  | hydrolysis, LC-MS (PM20D1-flag [2]): PM20D1 exhibited robust hydrolysis activity only on C20:4-Gly |
| CCCCC/C=C\C/C=C\C/C=C\C/C=C\CCCC(=O)NCCO [anandamide] | FAAH showed robust hydrolysis activity with anandamide as a substrate |  |
